According to ChEMBL document CHEMBL3734705, “Synthesis and in vitro cytotoxicity of novel C-12 substituted-14-deoxy-andrographolide derivatives as potent anti-cancer agents” (2015):
Active and inactive are the calls of the source. The calls are words filed in the database; no cut-off is given here.

Experiments:
[1] = Cytotoxicity against human RXF393 cells assessed as growth level at 10 uM after 48 hrs by SRB assay; type: functional, RXF 393
[2] = test system: NCI-H226; assay: Cytotoxicity against human NCI-H226 cells assessed as growth inhibition at 10 uM after 48 hrs by SRB assay; type: functional; settings: NCI-H226, 48 h, read-out: GI
[3] = Cytotoxicity against human OVCAR3 cells assessed as growth level at 10 uM after 48 hrs by SRB assay; type: functional, OVCAR-3
[4] = test system: MCF7; assay: Cytotoxicity against human MCF7 cells assessed as growth inhibition at 10 uM after 48 hrs by SRB assay; type: functional; settings: MCF7, 48 h, read-out: GI
[5] = Cytotoxicity against human IGROV1 cells assessed as growth inhibition at 10 uM after 48 hrs by SRB assay; type: functional; settings: IGROV-1, 48 h, read-out: GI
[6] = Cytotoxicity against human TK10 cells assessed as growth level at 10 uM after 48 hrs by SRB assay; type: functional, TK-10
[7] = Cytotoxicity against human HCT15 cells assessed as growth level at 10 uM after 48 hrs by SRB assay; type: functional, HCT-15
[8] = test system: NCI-H460; assay: Cytotoxicity against human NCI-H460 cells assessed as growth level at 10 uM after 48 hrs by SRB assay; type: functional
[9] = Cytotoxicity against human UACC257 cells assessed as growth level at 10 uM after 48 hrs by SRB assay; type: functional, UACC-257
[10] = Cytotoxicity against human SF268 cells assessed as growth level at 10 uM after 48 hrs by SRB assay; type: functional, SF-268
[11] = Cytotoxicity against human BT549 cells assessed as growth inhibition at 10 uM after 48 hrs by SRB assay; type: functional; settings: BT-549, 48 h, read-out: GI
[12] = test system: 786-0; assay: Cytotoxicity against human 786-0 cells assessed as growth inhibition at 10 uM after 48 hrs by SRB assay; type: functional; settings: 786-0, 48 h, read-out: GI
[13] = Cytotoxicity against human TK10 cells assessed as growth inhibition at 10 uM after 48 hrs by SRB assay; type: functional; settings: TK-10, 48 h, read-out: GI
[14] = test system: NCI-H522; assay: Cytotoxicity against human NCI-H522 cells assessed as growth level at 10 uM after 48 hrs by SRB assay; type: functional
[15] = Cytotoxicity against human SF539 cells assessed as growth level at 10 uM after 48 hrs by SRB assay; type: functional, SF-539
[16] = Cytotoxicity against human SKOV3 cells assessed as growth level at 10 uM after 48 hrs by SRB assay; type: functional, SK-OV-3
[17] = Cytotoxicity against human RPMI8226 cells assessed as growth level at 10 uM after 48 hrs by SRB assay; type: functional, RPMI-8226
[18] = test system: M14; assay: Cytotoxicity against human M14 cells assessed as growth inhibition at 10 uM after 48 hrs by SRB assay; type: functional; settings: M14, 48 h, read-out: GI
[19] = Cytotoxicity against human OVCAR5 cells assessed as growth level at 10 uM after 48 hrs by SRB assay; type: functional, OVCAR-5
[20] = test system: NCI-H522; assay: Cytotoxicity against human NCI-H522 cells assessed as growth inhibition at 10 uM after 48 hrs by SRB assay; type: functional; settings: NCI-H522, 48 h, read-out: GI
[21] = test system: KM12; assay: Cytotoxicity against human KM12 cells assessed as growth inhibition at 10 uM after 48 hrs by SRB assay; type: functional; settings: KM12, 48 h, read-out: GI
[22] = Cytotoxicity against human LOXIMVI cells assessed as growth inhibition at 10 uM after 48 hrs by SRB assay; type: functional; settings: LOX IMVI, read-out: GI
[23] = Cytotoxicity against human IGROV1 cells assessed as growth level at 10 uM after 48 hrs by SRB assay; type: functional, IGROV-1
[24] = Cytotoxicity against human HCT116 cells assessed as growth inhibition at 10 uM after 48 hrs by SRB assay; type: functional; settings: HCT-116, 48 h, read-out: GI
[25] = (§1) Cytotoxicity against human OVCAR5 cells assessed as growth inhibition at 10 uM after 48 hrs by SRB assay; type: functional; settings: OVCAR-5, 48 h, read-out: GI
[26] = test system: K562; assay: Cytotoxicity against human K562 cells assessed as growth level at 10 uM after 48 hrs by SRB assay; type: functional
[27] = test system: MDA-MB-435; assay: Cytotoxicity against human MDA-MB-435 cells assessed as growth level at 10 uM after 48 hrs by SRB assay; type: functional
[28] = test system: MCF7; assay: Cytotoxicity against human MCF7 cells assessed as growth level at 10 uM after 48 hrs by SRB assay; type: functional
[29] = Cytotoxicity against human UACC62 cells assessed as growth inhibition at 10 uM after 48 hrs by SRB assay; type: functional; settings: UACC-62, 48 h, read-out: GI
[30] = test system: OVCAR-5; assay: as §1; type: functional
[31] = test system: SK-MEL-2; assay: Cytotoxicity against human SK-MEL-2 cells assessed as growth inhibition at 10 uM after 48 hrs by SRB assay; type: functional; settings: SK-MEL-2, 48 h, read-out: GI

Structure (SMILES)	Activity [1]	inhibition of growth at 10 µM [2]	Activity [3]	inhibition of growth at 10 µM [4]	Activity [6]	Activity [7]	Activity [8]	Activity [9]	Activity [10]	inhibition of growth at 10 µM [11]	inhibition of growth at 10 µM [12]	inhibition of growth at 10 µM [13]	Activity [14]	Activity [15]	Activity [16]	Activity [17]	inhibition of growth at 10 µM [18]	Activity [19]	inhibition of growth at 10 µM [20]	inhibition of growth at 10 µM [21]	further results
C=C1CC[C@@H]2[C@](C)(COC(C)=O)[C@H](OC(C)=O)CC[C@@]2(C)[C@@H]1CC(NCCCC)C1=CCOC1=O (mixture of isomers)	104.19%	24.3%	91.12%	17.1%	99.06%	96.89%	91.62%	85.16%	76.97%	10.8%	3.93%	0.94%	79.13%	90.54%	92.42%	60.49%	7.25%	95.04%	20.9%	7.21%	inhibition of growth at 10 µM [5]: 20%; inhibition of growth at 10 µM [22]: 9.61%; Activity [23]: 80.01%; inhibition of growth at 10 µM [24]: 19.8%; inhibition of growth at 10 µM [25]: 4.96%; Activity [26]: 69.53%; Activity [27]: 88.61%; Activity [28]: 82.86%; inhibition of growth at 10 µM [29]: 27.6%
C=C1CC[C@@H]2[C@](C)(CO)[C@H](O)CC[C@@]2(C)[C@@H]1C/C=C1/C(=O)OC[C@H]1O [ANDROGRAPHOLIDE]	125.24%	8.26%	59.17%	42.2%	97.49%	61.89%	97.98%	76.51%	97.66%	12.9%	15.3%	2.51%	17.13%	83.41%	103.76%	83.28%	15.1%	104.24%	82.9%	19.8%	inhibition of growth at 10 µM [22]: 78.2%; Activity [23]: 103.71%; inhibition of growth at 10 µM [24]: 40%; growth inhibition (GI) [30]: inactive; Activity [26]: 65.53%; Activity [27]: 72.62%; Activity [28]: 57.55%; inhibition of growth at 10 µM [29]: 30.1%
C=C1CC[C@@H]2[C@](C)(COC(C)=O)[C@H](OC(C)=O)CC[C@@]2(C)[C@@H]1CC(NC1CCCC1)C1=CCOC1=O (some centres not stated)	78.03%	15.5%	68.98%	27.6%	87.06%	67.03%	74.77%	38.37%	76.66%	44.4%	7.49%	12.9%	45.56%	89.44%	87.88%	37.5%	20.9%	105.62%	54.4%	25.5%	inhibition of growth at 10 µM [5]: 11.8%; inhibition of growth at 10 µM [22]: 31.5%; Activity [23]: 88.25%; inhibition of growth at 10 µM [31]: 14.9%; inhibition of growth at 10 µM [24]: 55.3%; growth inhibition (GI) [30]: inactive; Activity [26]: 48.3%; Activity [27]: 75.73%; Activity [28]: 72.42%; inhibition of growth at 10 µM [29]: 34.4%
